# Source: US20240100121A1, “COMPOSITIONS OF A BETA-HAIRPIN PEPTIDOMIMETIC AND AEROSOL DOSAGE FORMS THEREOF” (priority 2020, published 2024)
# Like-named read-outs stand apart in the source and are kept apart here. Where a SMILES comes first, the peptide text is derived from it. [ ]: non-standard residue; d: D form. dDab = NCC[C@@H](N)C(=O)O; Orn = NCCC[C@H](N)C(=O)O; Dab = NCC[C@H](N)C(=O)O
# Key:
# [1] = tested on: PA34 (smooth phenotype); test: microbe, parasite or virus in culture; assay type: cell-based, Pseudomonas aeruginosa
# Protocol: (§1) Two CF isolates, PA34 (smooth phenotype) and PA40 (mucoid phenotype), and the 2 reference strains PAO and PAO mutS were tested with the BioFlux device. None of the clinical strains were hypermutators.
# (§2) Planktonic and biofilm susceptibility of the strains established in the Calgary device and used in the BioFlux device are described in Table 12.
# [2] = tested on: PAO; test: microbe, parasite or virus in culture; assay type: cell-based, Pseudomonas aeruginosa
# Protocol: as §1, §2
# [3] = tested on: PA40 (mucoid phenotype); test: microbe, parasite or virus in culture; assay type: cell-based, Pseudomonas aeruginosa
# Protocol: as §1, §2
# [4] = tested on: Pseudomonas aeruginosa isolates from respiratory samples of people with cystic fibrosis growing in biofilms; assay type: cell-based
# Source text: (§3) Two types of assays, an open and a closed system, were used to evaluate the in vitro activity on biofilms. The closed or static system based on the Calgary device (Diez-Aguilar M et al., Antimicrob Agents Chemother. 2018, 62, e01650-17, doi: 10.1128/AAC.01650-17, Moskowitz S M et al., J. Clin. Microbiol. 2004, 42, 1915-1922) analyzes biofilm formation in the wells of microtiter plates and is suitable for high-throughput analysis, obtaining pharmacodynamics (PD) parameters, while the open or dynamic system using the BioFlux device (Benoit M R et al., Appl. Environ. Microbiol. 2010, 76, 4136-4142) better resembles the in vivo conditions.
# (§4) To perform biofilm tests with the Calgary device, fifty-three Pseudomonas aeruginosa isolates from respiratory samples of people with cystic fibrosis were selected among the 414 Pseudomonas aeruginosa of the iABC-collection (Ekkelenkamp M B et al., Antimicrob. Agents Chemother. 2019, 64, 1-7). A representative number of isolates from Northern Ireland, Spain, the Netherlands, and Australia were chosen, including different morphotyes: 18 smooth, 11 mucoid, 11 rough, 10 metallic, and 3 small colony variants. As control strains, the PAO (most commonly used strain for research on this ubiquitous and metabolically versatile opportunistic pathogen, Klockgether J et al., Journal of Bacteriology 2010, 192, 1113-1121) and its hypermutator derivative, PAO mutS strains were used (Oliver A et al., Antimicrob. Agents Chemother. 2004, 48, 4226-33).
# (§5) This assay was performed as previously described but with minimal variations (Benoit M R et al., Appl. Environ. Microbiol. 2010, 76, 4136-4142) (FIG. 3). Briefly, a 0.5 McFarland culture was transferred to a flat-bottom 96-well microtiter plate (Nalge Nunc International, Rochester, New York, USA). Bacterial biofilm was formed around the pegs of a modified polystyrene microtiter lid. This lid with pegs was immersed into a growth plate and incubated for 20 h at 37° C. After rinsing the pegs 3 times in saline solution they were placed onto the antimicrobial in BBL™ Mueller-Hinton II cation-adjusted broth (MHB) (Becton, Dickinson and Company, Sparks, MD, USA) and incubated for 20 h at 37° C. […] After this incubation, the biofilm was recovered centrifuging (800 RPM/10 min) the peg lid in an antibiotic-free MHB filled-microtiter plate. The minimal biofilm inhibitory concentration (MBIC) was calculated after measuring the optical density (OD) (450 nm) before and after 6-hour incubation. Biofilm growth was defined as a mean OD difference of ≥0.05. […] The minimal biofilm eradication concentration (MBEC) was defined as the lowest concentration that prevents visible growth in the biofilm recovery medium after 18 h of the microtiter plate incubation (Ceri H et al., J. Clin. Microbiol. 1999, 37, 1771; Macià M D et al., Enferm. Infecc. Microbiol. Clin. 2018, 36, 375-381).
# MBIC and the MBEC are used to determine the anti-biofilm antibiotic in vitro efficacy. MBIC is the lowest concentration at which there is no time-dependent increase in the mean number of biofilm viable cells comparing an early with a later exposure time, while the MBEC indicates the eradication (partly or completely) of biofilm viable cells (Thieme L et al., Biol. Proced. Online 2019, 21, 1-5).
# [5] = tested on: PAO mutS; assay type: cell-based, Pseudomonas aeruginosa
# Protocol: as §1, §5, §2
# [6] = tested on: PA34 (smooth phenotype); assay type: cell-based, Pseudomonas aeruginosa
# Protocol: as §1, §5, §2
# [7] = tested on: PAO; assay type: cell-based, Pseudomonas aeruginosa
# Protocol: as §1, §5, §2
# [8] = tested on: PA40 (mucoid phenotype); assay type: cell-based, Pseudomonas aeruginosa
# Protocol: as §1, §5, §2
# [9] = tested on: Pseudomonas aeruginosa isolates from respiratory samples of people with cystic fibrosis; test: Planktonic susceptibility (MIC) of CF isolates; assay type: cell-based
# Source text: as §4
# [10] = tested on: PAO mutS; test: Planktonic susceptibility (MIC), PAO mutS; assay type: cell-based, Pseudomonas aeruginosa
# Protocol: as §1, §2
# [11] = tested on: PAO, PAO mutS, PA40, PA34; test: Planktonic susceptibility of all strains used in the BioFlux device; assay type: cell-based, Pseudomonas aeruginosa
# Protocol: as §1, §2
# [12] = tested on: clinical Pseudomonas aeruginosa isolates; test: Mouse lung infection model (PK-PD); assay type: in vivo
# [13] = 28-day dose inhalation study in CD-1 mice; assay type: in vivo
# Protocol: (§6) In the 28-day dose inhalation study in CD-1 mice (20-minute snout only exposure), the mean estimated achieved doses of 0.8, 3.5 and 7.2 mg/kg/day murepavadin free base were administered. […] There were no other findings considered test item related.
# [14] = parameters: species or system cynomolgus monkeys; details: cynomolgus monkey, in vivo
# Protocol: as §6
# [15] = tested on: Pseudomonas aeruginosa biofilms (PAO, PAO mutS, PA34, PA40); test: Biofilm assays performed by the BioFlux microfluidic open system; assay type: cell-based; details: both open and closed biofilm-testing systems
# Source text: as §3, with “conditions. […]” for “conditions.”
# Several biofilms were simultaneously developed in a 48 wells plate in the BioFlux 200 system, following an adapted protocol from Benoit M R et al. (Appl. Environ. Microbiol. 2010, 76, 4136-4142). […] Biofilm images were taken using a Nikon Eclipse Ti microscope (Nikon, Tokyo, Japan) and analyzed with the ImageJ program (Java-based image processing program, National Institute of Health, Bethesda, Maryland, USA and Laboratory for Optical and Computational Instrumentation, University of Wisconsin, Wisconsin, USA). The mean percentage of intensity of red fluorescence corresponding to dead cells within the biofilm is represented in a bar chart as black bar (FIG. 4). […]
# [16] = Pseudomonas aeruginosa, PA34, read-out: MIC
# [17] = Pseudomonas aeruginosa, PAO, read-out: MIC
# [18] = Pseudomonas aeruginosa, PA40, read-out: MIC
# [19] = biofilm, Calgary device, CF isolates
# [20] = Pseudomonas aeruginosa, read-out: MIC50
# [21] = Pseudomonas aeruginosa, read-out: MIC90
compound,measurement,setting,value
C[C@H]1[C@H](NC(=O)/C(=N\OC(C)(C)C(=O)O)c2csc(N)n2)C(=O)N1S(=O)(=O)O [aztreonam],MIC,[1]; [16],0.5 mg/L
same,MIC,[2]; [17],4 mg/L
same,MIC,[3]; [18],16 mg/L
same,MBEC50,[4]; [19],512/>512 mg/L
same,MBEC90,[4]; [19],512/>512 mg/L
same,MBIC50,[4]; [19],32 mg/L
same,MBIC90,[4]; [19],> 512 mg/L
same,MBEC,[5],>256 mg/L
same,MBIC,[5],>256 mg/L
same,MBEC,[6]; PA34,256 mg/L
same,MBIC,[6]; PA34,8 mg/L
same,MBEC,[7]; PAO,>256 mg/L
same,MBIC,[7]; PAO,>256 mg/L
same,MBEC,[8]; PA40,>256 mg/L
same,MBIC,[8]; PA40,32 mg/L
same,MIC range,[9],0.5 to 512 mg/L
same,MIC50,[9]; [20],4 mg/L
same,MIC90,[9]; [21],256 mg/L
same,MIC,[10]; Pseudomonas aeruginosa,64 mg/L
colistin,MIC,[1]; PA34,2 mg/L
same,MIC,[2]; PAO,1 mg/L
same,MIC,[3]; PA40,0.5 mg/L
same,MBEC50,[4]; [19],64 mg/L
same,MBEC90,[4]; [19],128 mg/L
same,MBEC range,[4]; [19],≤0.5 to 256 mg/L
same,MBIC50,[4]; [19],8 mg/L
same,MBIC90,[4]; [19],64 mg/L
same,MBIC range,[4]; [19],≤0.5 to 256 mg/L
same,MIC,[11]; all tested strains susceptible,2 mg/L
same,MBEC,[5],256 mg/L
same,MBIC,[5],256 mg/L
same,MBEC,[6]; PA34,128 mg/L
same,MBIC,[6]; PA34,32 mg/L
same,MBEC,[7]; PAO,128 mg/L
same,MBIC,[7]; PAO,64 mg/L
same,MBEC,[8]; PA40,32 mg/L
same,MBIC,[8]; PA40,32 mg/L
same,MIC50,[9],1 mg/L
same,MIC90,[9],4 mg/L
same,MIC range,[9],≤0.5 to 16 mg/L
same,MIC,[10]; PAO mutS,1 mg/L
NC[C@H]1O[C@H](O[C@H]2[C@H](O)[C@@H](O[C@H]3O[C@H](CO)[C@@H](O)[C@H](N)[C@H]3O)[C@H](N)C[C@@H]2N)[C@H](N)C[C@@H]1O [tobramycin],MIC,[1]; [16],0.25 mg/L
same,MIC,[2]; [17],0.5 mg/L
same,MIC,[3]; [18],0.5 mg/L
same,MBEC50,[4]; [19],8 mg/L
same,MBEC90,[4]; [19],256 mg/L
same,MBEC range,[4]; [19],≤0.5 to 512 mg/L
same,MBIC50,[4]; [19],2 mg/L
same,MBIC90,[4]; [19],32 mg/L
same,MBIC range,[4]; [19],≤0.5 to 512 mg/L
same,MIC,[11]; Pseudomonas aeruginosa,2 mg/L
same,MBEC,[5],32 mg/L
same,MBIC,[5],16 mg/L
same,MBEC,[6]; PA34,2 mg/L
same,MBIC,[6]; PA34,2 mg/L
same,MBEC,[7]; PAO,16 mg/L
same,MBIC,[7]; PAO,2 mg/L
same,MBEC,[8]; PA40,4 mg/L
same,MBIC,[8]; PA40,2 mg/L
same,MIC range,[9],≤0.5 to 256 mg/L
same,MIC50,[9]; [20],2 mg/L
same,MIC90,[9]; [21],16 mg/L
same,MIC,[10]; Pseudomonas aeruginosa,2 mg/L
"CC[C@H](C)[C@@H]1NC(=O)[C@H](Cc2c[nH]c3ccccc23)NC(=O)[C@H]([C@@H](C)O)NC(=O)[C@@H]2CCCN2C(=O)[C@H]2CCCN2C(=O)[C@H](CO)NC(=O)[C@H](C)NC(=O)[C@H](CCN)NC(=O)[C@H](CCN)NC(=O)[C@H](Cc2c[nH]c3ccccc23)NC(=O)[C@H](CCN)NC(=O)[C@@H](CCN)NC(=O)[C@H](CCCN)NC(=O)[C@H](CCN)NC1=O [murepavadin, cyclo(-Thr-Trp-Ile-Dab-Orn-^DDab-Dab-Trp-Dab-Dab-Ala-Ser-^DPro-Pro-)] (cyclo(TWI[Dab][Orn][dDab][Dab]W[Dab][Dab]AS[dP]P); ring closure inferred)",MIC,[1],0.06 mg/L
same,MIC,[2],0.06 mg/L
same,MIC,[3],0.06 mg/L
same,MBEC50,[4],16 mg/L
same,MBEC90,[4]; [19],64 mg/L
same,MBIC50,[4]; [19],4 mg/L
same,MBIC90,[4]; [19],32 mg/L
same,MBIC range,[4]; [19],≤0.5 to 64 mg/L
same,reduction of bacterial burden,"[12]; IT doses of 0.075-0.625 mg/kg, three out of four clinical isolates",> 2 log10
same,achieved dose required to attain the ELF AUC exposure,[12]; inhalation administration,0.18 mg/kg
same,achieved dose required to attain the ELF AUC exposure,[12]; intra-tracheal (i.t.) administration,0.10 mg/kg
same,mean AUC exposure in ELF sufficient to achieve a 1-login reduction of bacterial burden,"[12]; subcutaneous injection, 15 clinical Pseudomonas aeruginosa isolates",12.23 h·mg/L
same,No Observed Adverse Effect Level (NOAEL),"[13]; 28-day inhalation, 0.8, 3.5 and 7.2 mg/kg/day, adverse pathology in the upper respiratory tract",no No Observed Adverse Effect Level (NOAEL) could be established
same,systemic toxicity,"[13]; 28-day inhalation, 20-minute snout only exposure, up to 7.2 mg/kg/day murepavadin free base",no evidence of systemic toxicity
same,MIC,[11]; all tested strains susceptible,0.12 mg/L
same,MBEC,[5],256 mg/L
same,MBIC,[5],32 mg/L
same,MBEC,[6],4 mg/L
same,MBIC,[6],2 mg/L
same,MBEC,[7],8 mg/L
same,MBIC,[7],4 mg/L
same,MBEC,[8],8 mg/L
same,MBIC,[8],2 mg/L
same,MIC50,[9],≤ 0.5 mg/L
same,MIC90,[9],1 mg/L
same,MIC range,[9],≤0.5 to 32 mg/L
same,microscopic test item related findings at the tracheal bifurcation,[14],not considered adverse
same,activity against biofilms of Pseudomonas aeruginosa,[15],displayed activity
